Laboratory results as given in publication PMC11960843, “Exploration of the tunability of BRD4 degradation by DCAF16 trans-labelling covalent glues” (European journal of medicinal chemistry, 2024).
Like-named read-outs stand apart in the source and are kept apart here.

Legend:
BRD4BD1 = BRD4BD1 (Homo sapiens, UniProt O60885); assay: BRD4 AlphaScreen competition assay (JQ1-biotin displacement), BRD4BD1; type: binding
BRD4BD2 [1] = target: T1, BRD4BD2 (Homo sapiens, UniProt O60885); assay: BRD4 AlphaScreen competition assay (JQ1-biotin displacement), BRD4BD2; type: binding
BRD4 [2] = target: T2, BRD4 (Homo sapiens, UniProt O60885); assay: Western blot of BRD4 degradation, wild-type K562 cells; type: cell-based; set-up: an 11 amino acid peptide knock-in tag to a protein-of-interest using CRISPR insertion; endogenous in cells; settings: wild-type K562, 1 μM, 16 h
Method: (§1) Western blotting was used to determine the degradation potencies of the covalent BRD4 degraders.
(§2) Cells were washed with PBS and lysed in RIPA lysis buffer (Thermo Fisher Scientific) with Halt Protease Inhibitor Cocktail (Thermo Fisher Scientific) and Benzonase (Sigma-Aldrich) for 20 min on ice. The insoluble fraction was removed by centrifugation, the protein concentration was quantified using a BCA protein assay kit (Thermo Fisher Scientific), and an equal amount of lysate was run on SDS–PAGE 4–12% Bis–Tris Protein Gels (Thermo Fisher Scientific) and then transferred to nitrocellulose membrane with a XCell II Blot Module Wet Tank Transfer System (Thermo Fisher Scientific). Membranes were blocked in Intercept (PBS) Blocking Buffer (LI-COR Biosciences) and incubated with primary antibodies overnight at 4 °C. The membranes were then washed in Tris-buffered saline with Tween-20 (TBS-T), incubated for 1 h with secondary IRDye-conjugated antibodies (LI-COR Biosciences) and washed three times in TBS-T for 5 min before near-infrared western blot detection on an Odyssey Imaging System (LI-COR Biosciences).

glutathione = assay: GSH stability (glutathione reactivity) assay by LC-MS/MS; type: physicochemical; settings: PBS containing 5 mM reduced glutathione; PBS + 5 mM GSH; extrapolated from 240 min assay
Text: Furthermore, we wanted to determine the kinetics of the BRD4BD2-DCAF16 interaction given its covalent nature. […] Additionally, to understand the relationship between ternary complex formation kinetics and warhead reactivity we measured the depletion of the covalent analogs in the presence of glutathione using MS (Table S2). […].

BRD4 [3] = target: T2, BRD4; assay: BRD4-HiBiT assay, DCAF16 KO JURKAT cells; type: cell-based; set-up: an 11 amino acid peptide knock-in tag to a protein-of-interest using CRISPR insertion; endogenous in cells; host or cells: JURKAT, HiBiT-edited (wild type or DCAF16 knockout); settings: 6 h
Method: (§3) Thereafter, we sought to characterize the BRD4 cellular degradation potencies in a dose-dependent manner at a shorter time point to minimize secondary effects. This was performed using the bioluminescent HiBiT-BRD4 assay, which consists of an 11 amino acid peptide knock-in tag to a protein-of-interest using CRISPR insertion. A complementary polypeptide (LgBiT) detects and interacts with all HiBiT tagged proteins, thereby reconstituting a luminescent NanoBiT enzyme, that can be quantified by its bioluminescence. WT and DCAF16 KO JURKAT cell lines expressing the BRD4-HiBiT system were generated to quantify dose-dependent BRD4 degradation after 6 h incubation (Fig. 4C).
(§4) After 6 h, the plates were subjected to Nano-Glo HiBiT Lytic detection system (Promega, #N3040) as described in manufacturer's manual. The assays were performed in biological triplicate. DC50 values were determined using a non-linear regression curve fit in GraphPad PRISM 9.5.1.

[4] = target: T3, BRD4BD2-DCAF16 ternary complex (Homo sapiens, UniProt O60885+Q9NXF7); assay: DDB1-DCAF16-BRD4BD2 TR-FRET ternary complex formation assay; type: biochemical; settings: for TR-FRETmax (520 nm/490 nm ratio): 6 h degrader incubation; for incubation time of saturation / maximum TR-FRET signal: measured at 1, 2, 4, 6 and 24 h; for BRD4BD2-DCAF16 ternary complex formation / DCAF16 recruitment (in words): time-dependent TR-FRET
T3 construct: E3 ligase to bromodomain 2 (BRD4BD2); His6 (N); StrepII (N); Avi (N); made in house; host or cells: BRD4BD2: E. coli (pET100/D-TOPO)
Text: To determine the relationship between covalent warheads and DCAF16 recruitment to BRD4BD2, we used a time-resolved fluorescence energy transfer (TR-FRET) assay to measure induced BRD4BD2-DCAF16 ternary complex formation (Fig. 3A).
Furthermore, we wanted to determine the kinetics of the BRD4BD2-DCAF16 interaction given its covalent nature. […] Additionally, to understand the relationship between ternary complex formation kinetics and warhead reactivity we measured the depletion of the covalent analogs in the presence of glutathione using MS (Table S2). […] Titrations of compounds to induce the DCAF16-BRD4BD complex were carried out by mixing 100 nM biotinylated BRD4BD2, 500 nM BODIPY-FL labeled DDB1ΔB-DCAF16 variants, and 2 nM terbium-coupled streptavidin (Invitrogen) in an assay buffer containing 50 mM HEPES pH 8.0, 200 mM NaCl, 0.1% Pluronic F-68 solution (Sigma), 0.5% bovine serum albumin (BSA) (w/v) and 1 mM TCEP. […] The TR-FRET signal of each data point was extracted by calculating the 520/490 nm ratio.

BRD4 [5] = target: T2, BRD4; assay: BRD4-HiBiT assay, WT JURKAT cells; type: cell-based; set-up: an 11 amino acid peptide knock-in tag to a protein-of-interest using CRISPR insertion; endogenous in cells; host or cells: JURKAT, HiBiT-edited (wild type or DCAF16 knockout); settings: 6 h
Method: as §3, §4

BRD4BD2 [6] = target: T1, BRD4BD2; assay: BRD4BD2-eGFP and mCherry flow reporter degradation assay, DCAF16 KO K562 cells
Text: In order to investigate the degradation of BRD4 by GNE011 and related analogs, we used a fluorescent stability reporter assay reported previously (Fig. 2A) [17]. This assay involves the co-expression of mCherry with BRD4BD1/2 fused to an enhanced green fluorescent protein (eGFP) tag, and the subsequent fluorescence measurement of BRD4BD1/2-eGFP normalized to mCherry as a readout for BRD4BD1/2 degradation. It allows for a quantitative, rapid, and facile screening of several MGDs, in a dose-and time-dependent manner. […] Thus, the BRD4BD2 stability system was used to test all subsequent GNE011 analogs in wild type and DCAF16−/− cells.
Lentivirus containing sgRNA was transduced to 2 × 10^6 of K562-Cas9 cells at 10% volume ratio by spin infection. FACS sorting was performed to enrich BFP+ cells one week after infection. […] Clonal sgDCAF16-expressing K562-Cas9 cells were isolated after one month of expansion, and the genomic sequences were validated via deep sequencing of PCR amplicons targeting sgDCAF16 cutting sites (MGH CCIB DNA Core Service).
(§5) K562 cells stably expressing degradation reporter were dosed with DMSO or degraders at various times and concentrations using D300e Digital Dispenser (HP). The fluorescent signal was quantified by flow cytometry (LSRFortessa flow cytometer, BD Biosciences) and analyzed using FlowJo (flow cytometry analysis software, BD Biosciences). The geometric mean of the eGFP and mCherry fluorescent signal for round and mCherry-positive cells was calculated. GFP expression was normalized to mCherry signal and drug treatments were compared to DMSO controls.

BRD4BD2 [7] = target: T1, BRD4BD2; assay: BRD4BD2-eGFP and mCherry flow reporter degradation assay, wild type K562 cells; settings: for Dmax: K562, read-out: maximal degradation (Dmax/16h) of BRD4BD2, K562 cells, 16 h incubation; for DC50: read-out: DC50 of BRD4BD2 degradation; for DC50 / DCAF16 dependent BRD4BD2 degradation (in words): K562 cells, 16 h incubation
Text: This assay involves the co-expression of mCherry with BRD4BD1/2 fused to an enhanced green fluorescent protein (eGFP) tag, and the subsequent fluorescence measurement of BRD4BD1/2-eGFP normalized to mCherry as a readout for BRD4BD1/2 degradation. It allows for a quantitative, rapid, and facile screening of several MGDs, in a dose-and time-dependent manner. […] Thus, the BRD4BD2 stability system was used to test all subsequent GNE011 analogs in wild type and DCAF16−/− cells.
One day after infection, reporter cells were selected with puromycin at a concentration of 2 μg/mL.
as §5

BRD4 [8] = target: T2, BRD4; assay: Washout experiment, Western blot of BRD4 degradation in K562 cells; type: cell-based; set-up: an 11 amino acid peptide knock-in tag to a protein-of-interest using CRISPR insertion; endogenous in cells; settings: K562, 1 μM; for BRD4 degradation after washout compared to no washout (in words): 4 h treatment, 20 h compound-free vs 24 h no washout
Method: This experiment involves cell treatment and incubation with a ‘covalent’ compound, followed by a wash-step where the cells are washed and resuspended in compound-free cell media.
Cells were washed with PBS and lysed in RIPA lysis buffer (Thermo Fisher Scientific) with Halt Protease Inhibitor Cocktail (Thermo Fisher Scientific) and Benzonase (Sigma-Aldrich) for 20 min on ice. […] Membranes were blocked in Intercept (PBS) Blocking Buffer (LI-COR Biosciences) and incubated with primary antibodies overnight at 4 °C. The membranes were then washed in Tris-buffered saline with Tween-20 (TBS-T), incubated for 1 h with secondary IRDye-conjugated antibodies (LI-COR Biosciences) and washed three times in TBS-T for 5 min before near-infrared western blot detection on an Odyssey Imaging System (LI-COR Biosciences).

BRD4 [9] = target: T2, BRD4; assay: Western blot of BRD4 degradation, DCAF16 KO K562 cells; type: cell-based; set-up: an 11 amino acid peptide knock-in tag to a protein-of-interest using CRISPR insertion; endogenous in cells; settings: DCAF16 KO K562, 1 μM, 16 h
Method: as §1, §2

T3 sequence (Q9NXF7 whole entry, other chains not shown): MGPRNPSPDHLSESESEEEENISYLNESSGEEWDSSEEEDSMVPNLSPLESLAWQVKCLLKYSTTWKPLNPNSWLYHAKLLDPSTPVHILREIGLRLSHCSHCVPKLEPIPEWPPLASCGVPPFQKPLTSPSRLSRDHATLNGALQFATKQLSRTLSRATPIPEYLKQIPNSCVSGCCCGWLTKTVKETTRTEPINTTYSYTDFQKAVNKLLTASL

SMILES | IC50 (BRD4BD1) | IC50 (BRD4BD2 [1]) | IC50 (BRD4BD1; read-out: IC50 BRD4BD1) | IC50 (BRD4BD2 [1]; read-out: IC50 BRD4BD2) | BRD4 degradation by Western blot (in words) (BRD4 [2]) | half-life (glutathione) | BRD4 degradation in DCAF16 KO (in words) (BRD4 [3]) | TR-FRETmax (520 nm/490 nm ratio) [4] | incubation time of saturation / maximum TR-FRET signal [4] | BRD4 degradation (BRD4 [5]) | BRD4 degradation (in words) (BRD4 [5]) | BRD4BD2 degradation activity in DCAF16 knockout cells (in words) (BRD4BD2 [6]) | Dmax (BRD4BD2 [7]) | DC50 (BRD4BD2 [7]) | BRD4 degradation after washout compared to no washout (in words) (BRD4 [8]) | BRD4BD2-DCAF16 ternary complex formation / DCAF16 recruitment (in words) [4] | DCAF16 dependent BRD4BD2 degradation (in words) (BRD4BD2 [7]) | BRD4 degradation by Western blot in DCAF16 KO (in words) (BRD4 [9]) | BRD4 degradation (BRD4 [5]; at 10 μM) | BRD4 degradation without washout (in words) (BRD4 [8]; 24 h no washout)
Cc1sc2c(c1C)C(c1ccc(I)cc1)=N[C@@H](CC(=O)OC(C)(C)C)c1nnc(C)n1-2 [MMH263, tert-butyl (S)-2-(4-(4-iodophenyl)-2,3,9-trimethyl-6H-thieno[3,2-f][1,2,4]triazolo[4,3-a][1,4]diazepin-6-yl)acetate] | 11.7 nM | 4.96 nM | – | – | – | – | – | – | – | – | – | – | – | – | – | – | – | – | – | –
Cc1sc2c(c1C)C(c1ccc(NC(=O)CCl)cc1)=N[C@@H](CC(=O)OC(C)(C)C)c1nnc(C)n1-2 [MMH249, tert-butyl (S)-2-(4-(4-(2-chloroacetamido)phenyl)-2,3,9-trimethyl-6H-thieno[3,2-f][1,2,4]triazolo[4,3-a][1,4]diazepin-6-yl)acetate] | – | – | 3.98 nM | 2.59 nM | moderate degradation | 8.85 h | completely rescued by DCAF16 KO | 0.77 | 24 h | < 60% | noticeable BRD4 degradation | almost entirely ablated | 56% | 8 nM | no or minimal difference | – | – | – | – | –
Cc1sc2c(c1C)C(c1ccc(C#CCO)cc1)=N[C@@H](CC(=O)OC(C)(C)C)c1nnc(C)n1-2 [TMX458, tert-butyl (S)-2-(4-(4-(3-hydroxyprop-1-yn-1-yl)phenyl)-2,3,9-trimethyl-6H-thieno[3,2-f][1,2,4]triazolo[4,3-a][1,4]diazepin-6-yl)acetate] | – | – | 10.1 nM | 3.92 nM | – | – | – | 0.16 | – | – | – | – | 10% | > 10000 nM | – | no significant DCAF16 recruitment | completely inactive | – | – | –
Cc1sc2c(c1C)C(c1ccc(/C=C/C=O)cc1)=N[C@@H](CC(=O)OC(C)(C)C)c1nnc(C)n1-2 [TMX1, tert-butyl (S,E)-2-(2,3,9-trimethyl-4-(4-(3-oxoprop-1-en-1-yl)phenyl)-6H-thieno[3,2-f][1,2,4]triazolo[4,3-a][1,4]diazepin-6-yl)acetate] | – | – | 8.78 nM | 33.9 nM | nearly complete BRD4 degradation | 6.92 h | completely rescued by DCAF16 KO | 1.34 | 1 h | < 60% | noticeable BRD4 degradation | – | 75% | 64 nM | no or minimal difference | – | – | completely rescued by DCAF16 KO | – | –
Cc1sc2c(c1C)C(c1ccc(N)cc1)=N[C@@H](CC(=O)OC(C)(C)C)c1nnc(C)n1-2 [MMH248, tert-butyl (S)-2-(4-(4-aminophenyl)-2,3,9-trimethyl-6H-thieno[3,2-f][1,2,4]triazolo[4,3-a][1,4]diazepin-6-yl)acetate] | 12.5 nM | 4.29 nM | – | – | – | – | – | – | – | – | – | – | – | – | – | – | – | – | – | –
Cc1sc2c(c1C)C(c1ccc(C#CC=O)cc1)=N[C@@H](CC(=O)OC(C)(C)C)c1nnc(C)n1-2 [TMX4128, tert-butyl (S)-2-(2,3,9-trimethyl-4-(4-(3-oxoprop-1-yn-1-yl)phenyl)-6H-thieno[3,2-f][1,2,4]triazolo[4,3-a][1,4]diazepin-6-yl)acetate] | – | – | 2.2 nM | 21.7 nM | nearly complete BRD4 degradation | 8.83 h | completely rescued by DCAF16 KO | 0.65 | 1 h | < 60% | noticeable BRD4 degradation | – | 69% | 703 nM | no or minimal difference | disintegration of the ternary complex overtime | – | completely rescued by DCAF16 KO | ~ 73% | –
COC(=O)/C=C/c1ccc(C2=N[C@@H](CC(=O)OC(C)(C)C)c3nnc(C)n3-c3sc(C)c(C)c32)cc1 [MMH269, methyl (S,E)-3-(4-(6-(2-(tert-butoxy)-2-oxoethyl)-2,3,9-trimethyl-6H-thieno[3,2-f][1,2,4]triazolo[4,3-a][1,4]diazepin-4-yl)phenyl)acrylate] | – | – | 10.5 nM | 5.07 nM | – | > 12.5 h | – | 0.18 | – | – | – | – | – | – | – | no significant DCAF16 recruitment | almost no DCAF16 dependent BRD4BD2 degradation | – | – | showed BRD4 degradation in 24 h no washout experiments
